Data: patent US11659837B2, “Mixtures comprising an urease inhibitor (UI) and a nitrification inhibitor such as 2-(3,4-dimethyl-1H-pyrazol-1-yl)succinic acid (DMPSA) or 3,4-dimethyl pyrazolium glycolate (DMPG)” (BASF SE, priority 2017, dated 2023)

Tested on: N2O emissions from soils
Assay: Greenhouse experiment: detection of nitrous oxide (N2O) losses from pots
Conditions: urea
Description: Detection of Nitrous Oxide Losses:
On application day (DATO), each pot (with/without plants or algae) was set onto a plant saucer designed with an inner compartment for the pot and an outer ring that is filled with water. At time 0, water holding capacity of the soil was set to 60-70% prior to application with/without fertilizer and a.i. Subsequently, a gas sampling chamber was placed over the plant saucer such that the rim fit into the ring filled with water to create a gas-tight chamber and 25 cc air from the chamber were drawn into a syringe and immediately emptied in to a Vacutainer (Labco, 12 ml volume). This equals the Time 0 measurement for each pot. The same procedure was performed with all pots in the experiment. After two hour incubation time, again 25 cc air samples were taken from the gas chambers and emptied into Vacutainers as described above. Plants were then returned to their positions in the climate chamber. The procedure was repeated at precisely the same time of day for up to 19 days.
Samples were analyzed in a Shimadzu 2014 GC equipped with an ECD system.

[1] = DAT 1, NI 0.20, UI 0.01 where present
[2] = DAT 1, NI 0.35, UI 0.01 where present
[3] = DAT 1, NI 0.50, UI 0.01 where present
[4] = DAT 2, NI 0.20, UI 0.01 where present
[5] = DAT 2, NI 0.35, UI 0.01 where present
[6] = DAT 2, NI 0.50, UI 0.01 where present
[7] = DAT 3, NI 0.20, UI 0.01 where present
[8] = DAT 3, NI 0.35, UI 0.01 where present
[9] = DAT 3, NI 0.50, UI 0.01 where present
[10] = DAT 4, NI 0.20, UI 0.01 where present
[11] = DAT 4, NI 0.35, UI 0.01 where present
[12] = DAT 4, NI 0.50, UI 0.01 where present
[13] = DAT 5, NI 0.20, UI 0.01 where present
[14] = DAT 5, NI 0.35, UI 0.01 where present
[15] = DAT 5, NI 0.50, UI 0.01 where present
[16] = DAT 6, NI 0.20, UI 0.01 where present
[17] = DAT 6, NI 0.35, UI 0.01 where present
[18] = DAT 6, NI 0.50, UI 0.01 where present
[19] = DAT 7, NI 0.20, UI 0.01 where present
[20] = DAT 7, NI 0.35, UI 0.01 where present
[21] = DAT 7, NI 0.50, UI 0.01 where present
[22] = DAT 8, NI 0.20, UI 0.01 where present
[23] = DAT 8, NI 0.35, UI 0.01 where present
[24] = DAT 8, NI 0.50, UI 0.01 where present
[25] = DAT 10, NI 0.20, UI 0.01 where present
[26] = DAT 10, NI 0.35, UI 0.01 where present
[27] = DAT 10, NI 0.50, UI 0.01 where present
[28] = DAT 12, NI 0.20, UI 0.01 where present
[29] = DAT 12, NI 0.35, UI 0.01 where present
[30] = DAT 12, NI 0.50, UI 0.01 where present
[31] = DAT 16, NI 0.20, UI 0.01 where present
[32] = DAT 16, NI 0.35, UI 0.01 where present
[33] = DAT 16, NI 0.50, UI 0.01 where present
[34] = DAT 19, NI 0.20, UI 0.01 where present
[35] = DAT 19, NI 0.35, UI 0.01 where present
[36] = DAT 19, NI 0.50, UI 0.01 where present

With `CCCCNP(N)(N)=S` [NBPT, N-(n-butyl)thiophosphoric acid triamide, reference compound] the “Nitrous oxide (N2O) emissions, cumulated values” (“Nitrous oxide … cumulated values” for short) (DAT 1, no NI, UI 0.01) was 9.77 μg N2O—N/m2*h, the “Nitrous oxide … cumulated values” (DAT 2, no NI, UI 0.01) was 27.42 μg N2O—N/m2*h and the “Nitrous oxide … cumulated values” (DAT 3, no NI, UI 0.01) was 40.07 μg N2O—N/m2*h. For the same molecule, the “Nitrous oxide … cumulated values” (DAT 4, no NI, UI 0.01) was 53.70 μg N2O—N/m2*h, the “Nitrous oxide … cumulated values” (DAT 5, no NI, UI 0.01) was 68.86 μg N2O—N/m2*h and the “Nitrous oxide … cumulated values” (DAT 6, no NI, UI 0.01) was 89.16 μg N2O—N/m2*h. For the same molecule, the “Nitrous oxide … cumulated values” (DAT 7, no NI, UI 0.01) was 109.04 μg N2O—N/m2*h, the “Nitrous oxide … cumulated values” (DAT 8, no NI, UI 0.01) was 127.94 μg N2O—N/m2*h and the “Nitrous oxide … cumulated values” (DAT 10, no NI, UI 0.01) was 133.95 μg N2O—N/m2*h. The “Nitrous oxide … cumulated values” (DAT 12, no NI, UI 0.01) was 140.07 μg N2O—N/m2*h, the “Nitrous oxide … cumulated values” (DAT 16, no NI, UI 0.01) was 143.31 μg N2O—N/m2*h and the “Nitrous oxide … cumulated values” (DAT 19, no NI, UI 0.01) was 146.30 μg N2O—N/m2*h. The “Nitrous oxide (N2O) emissions, % appl. N” value (no NI, UI 0.01) was 0.628 % appl. N.

`Cc1cn(C(CC(=O)O)C(=O)O)nc1C.N.N` (stereo not shown) [DMPSA-di-NH4] was tested, and the “Nitrous oxide … cumulated values” [1] was 5.71 μg N2O—N/m2*h, the “Nitrous oxide … cumulated values” [2] was 6.74 μg N2O—N/m2*h and the “Nitrous oxide … cumulated values” [3] was 7.89 μg N2O—N/m2*h. For the same molecule, the “Nitrous oxide … cumulated values” [4] was 17.84 μg N2O—N/m2*h, the “Nitrous oxide … cumulated values” [5] was 22.08 μg N2O—N/m2*h and the “Nitrous oxide … cumulated values” [6] was 16.36 μg N2O—N/m2*h. The “Nitrous oxide … cumulated values” [7] was 28.36 μg N2O—N/m2*h, the “Nitrous oxide … cumulated values” [8] was 30.26 μg N2O—N/m2*h and the “Nitrous oxide … cumulated values” [9] was 23.64 μg N2O—N/m2*h. For the same molecule, the “Nitrous oxide … cumulated values” [10] was 40.61 μg N2O—N/m2*h, the “Nitrous oxide … cumulated values” [11] was 39.25 μg N2O—N/m2*h and the “Nitrous oxide … cumulated values” [12] was 31.59 μg N2O—N/m2*h. The “Nitrous oxide … cumulated values” [13] was 51.02 μg N2O—N/m2*h, the “Nitrous oxide … cumulated values” [14] was 47.97 μg N2O—N/m2*h and the “Nitrous oxide … cumulated values” [15] was 38.95 μg N2O—N/m2*h. For the same molecule, the “Nitrous oxide … cumulated values” [16] was 57.34 μg N2O—N/m2*h, the “Nitrous oxide … cumulated values” [17] was 54.68 μg N2O—N/m2*h and the “Nitrous oxide … cumulated values” [18] was 45.83 μg N2O—N/m2*h. The “Nitrous oxide … cumulated values” [19] was 66.12 μg N2O—N/m2*h, the “Nitrous oxide … cumulated values” [20] was 60.89 μg N2O—N/m2*h and the “Nitrous oxide … cumulated values” [21] was 53.03 μg N2O—N/m2*h. For the same molecule, the “Nitrous oxide … cumulated values” [22] was 76.79 μg N2O—N/m2*h, the “Nitrous oxide … cumulated values” [23] was 66.75 μg N2O—N/m2*h and the “Nitrous oxide … cumulated values” [24] was 62.02 μg N2O—N/m2*h. The “Nitrous oxide … cumulated values” [25] was 86.54 μg N2O—N/m2*h, the “Nitrous oxide … cumulated values” [26] was 72.23 μg N2O—N/m2*h and the “Nitrous oxide … cumulated values” [27] was 67.48 μg N2O—N/m2*h. The “Nitrous oxide … cumulated values” [28] was 92.81 μg N2O—N/m2*h, the “Nitrous oxide … cumulated values” [29] was 76.32 μg N2O—N/m2*h and the “Nitrous oxide … cumulated values” [30] was 72.35 μg N2O—N/m2*h. For the same molecule, the “Nitrous oxide … cumulated values” [31] was 93.10 μg N2O—N/m2*h, the “Nitrous oxide … cumulated values” [32] was 78.21 μg N2O—N/m2*h and the “Nitrous oxide … cumulated values” [33] was 74.66 μg N2O—N/m2*h. The “Nitrous oxide … cumulated values” [34] was 93.49 μg N2O—N/m2*h, the “Nitrous oxide … cumulated values” [35] was 78.47 μg N2O—N/m2*h and the “Nitrous oxide … cumulated values” [36] was 75.03 μg N2O—N/m2*h. The “Nitrous oxide (N2O) emissions, % appl. N” value (NI 0.20, UI 0.01 where present) was 0.401 % appl. N, the “Nitrous oxide (N2O) emissions, % appl. N” value (NI 0.35, UI 0.01 where present) was 0.337 % appl. N and the “Nitrous oxide (N2O) emissions, % appl. N” value (NI 0.50, UI 0.01 where present) was 0.322 % appl. N.

With `Cc1cn(C(CC(=O)[O-])C(=O)[O-])nc1C.[K+].[K+]` (stereo not shown) [DMPSA-K2] the “Nitrous oxide … cumulated values” [1] was 8.97 μg N2O—N/m2*h, the “Nitrous oxide … cumulated values” [2] was 7.74 μg N2O—N/m2*h and the “Nitrous oxide … cumulated values” [3] was 7.62 μg N2O—N/m2*h. For the same molecule, the “Nitrous oxide … cumulated values” [4] was 19.30 μg N2O—N/m2*h, the “Nitrous oxide … cumulated values” [5] was 18.94 μg N2O—N/m2*h and the “Nitrous oxide … cumulated values” [6] was 20.18 μg N2O—N/m2*h. The “Nitrous oxide … cumulated values” [7] was 29.75 μg N2O—N/m2*h, the “Nitrous oxide … cumulated values” [8] was 29.26 μg N2O—N/m2*h and the “Nitrous oxide … cumulated values” [9] was 30.31 μg N2O—N/m2*h. The “Nitrous oxide … cumulated values” [10] was 37.16 μg N2O—N/m2*h, the “Nitrous oxide … cumulated values” [11] was 37.09 μg N2O—N/m2*h and the “Nitrous oxide … cumulated values” [12] was 37.69 μg N2O—N/m2*h. For the same molecule, the “Nitrous oxide … cumulated values” [13] was 45.99 μg N2O—N/m2*h, the “Nitrous oxide … cumulated values” [14] was 46.55 μg N2O—N/m2*h and the “Nitrous oxide … cumulated values” [15] was 46.97 μg N2O—N/m2*h. The “Nitrous oxide … cumulated values” [16] was 52.71 μg N2O—N/m2*h, the “Nitrous oxide … cumulated values” [17] was 52.67 μg N2O—N/m2*h and the “Nitrous oxide … cumulated values” [18] was 52.44 μg N2O—N/m2*h. The “Nitrous oxide … cumulated values” [19] was 60.65 μg N2O—N/m2*h, the “Nitrous oxide … cumulated values” [20] was 60.12 μg N2O—N/m2*h and the “Nitrous oxide … cumulated values” [21] was 62.57 μg N2O—N/m2*h. The “Nitrous oxide … cumulated values” [22] was 68.52 μg N2O—N/m2*h, the “Nitrous oxide … cumulated values” [23] was 70.52 μg N2O—N/m2*h and the “Nitrous oxide … cumulated values” [24] was 72.03 μg N2O—N/m2*h. For the same molecule, the “Nitrous oxide … cumulated values” [25] was 77.59 μg N2O—N/m2*h, the “Nitrous oxide … cumulated values” [26] was 77.77 μg N2O—N/m2*h and the “Nitrous oxide … cumulated values” [27] was 79.00 μg N2O—N/m2*h. For the same molecule, the “Nitrous oxide … cumulated values” [28] was 85.15 μg N2O—N/m2*h, the “Nitrous oxide … cumulated values” [29] was 81.35 μg N2O—N/m2*h and the “Nitrous oxide … cumulated values” [30] was 82.43 μg N2O—N/m2*h. The “Nitrous oxide … cumulated values” [31] was 87.97 μg N2O—N/m2*h, the “Nitrous oxide … cumulated values” [32] was 84.12 μg N2O—N/m2*h and the “Nitrous oxide … cumulated values” [33] was 84.05 μg N2O—N/m2*h. The “Nitrous oxide … cumulated values” [34] was 88.83 μg N2O—N/m2*h, the “Nitrous oxide … cumulated values” [35] was 84.94 μg N2O—N/m2*h and the “Nitrous oxide … cumulated values” [36] was 84.28 μg N2O—N/m2*h. For the same molecule, the “Nitrous oxide (N2O) emissions, % appl. N” value (NI 0.20, UI 0.01 where present) was 0.381 % appl. N, the “Nitrous oxide (N2O) emissions, % appl. N” value (NI 0.35, UI 0.01 where present) was 0.364 % appl. N and the “Nitrous oxide (N2O) emissions, % appl. N” value (NI 0.50, UI 0.01 where present) was 0.361 % appl. N.
